ChEMBL document CHEMBL1158442, “Design, synthesis and structure-activity relationships of (1H-pyridin-4-ylidene)amines as potential antimalarials” (Bioorg Med Chem Lett, 2009)

How the values were obtained:
Plasmodium falciparum [1] = assay: Antimalarial activity after 48 hrs against chloroquine-resistant Plasmodium falciparum W2 by [3H]hypoxanthine uptake; format: functional, organism-based
Plasmodium falciparum [2] = assay: Antimalarial activity after 48 hrs against atovaquone-resistant Plasmodium falciparum FCR3 by [3H]hypoxanthine uptake; format: functional, organism-based

Cn1cc/c(=N\c2cccc(CCc3ccccc3)c2)c(N)c1
IC50 (Plasmodium falciparum [1]): 1.47 µM
IC50 (Plasmodium falciparum [2]): 2.21 µM

Cn1cc/c(=N\c2cccc(CCc3ccccc3)c2)c(Cl)c1
IC50 (Plasmodium falciparum [1]): 4.75 µM
IC50 (Plasmodium falciparum [2]): 2.89 µM

CCn1cc/c(=N\c2ccc(CCc3ccccc3)cc2)c(Cl)c1
IC50 (Plasmodium falciparum [1]): > 10 µM
IC50 (Plasmodium falciparum [2]): 3.74 µM

CCN(CC)Cc1cc(N=c2ccn(C)cc2)ccc1O
IC50 (Plasmodium falciparum [1]): 8.61 µM
IC50 (Plasmodium falciparum [2]): 7.9 µM

CCn1cc/c(=N\c2cccc(CCc3ccc(OC)cc3)c2)c(Cl)c1
IC50 (Plasmodium falciparum [1]): 3.44 µM
IC50 (Plasmodium falciparum [2]): 3.95 µM

CCn1cc/c(=N\c2cccc(CCc3ccc(Cl)cc3)c2)c(Cl)c1
IC50 (Plasmodium falciparum [1]): 3.24 µM
IC50 (Plasmodium falciparum [2]): 2.17 µM

CC[N+](C)(CC)Cc1cc(/N=c2\ccn(C)cc2S(=O)(=O)N(C)C)ccc1OC
IC50 (Plasmodium falciparum [1]): > 50 µM
IC50 (Plasmodium falciparum [2]): > 10 µM

CCn1cc/c(=N\c2cccc(CCc3ccc(OC(F)(F)F)cc3)c2)c(Cl)c1
IC50 (Plasmodium falciparum [1]): 1.07 µM
IC50 (Plasmodium falciparum [2]): 1.7 µM

CCn1cc/c(=N\c2cccc(CCCc3ccccc3)c2)c(Cl)c1
IC50 (Plasmodium falciparum [1]): 2.43 µM
IC50 (Plasmodium falciparum [2]): 2.25 µM

CCn1cc/c(=N\c2ccccc2CCc2ccccc2)c(Cl)c1
IC50 (Plasmodium falciparum [1]): 6.77 µM
IC50 (Plasmodium falciparum [2]): 3.19 µM

CCN(CC)Cc1cc(/N=c2\ccn(C)c(C)c2)ccc1O
IC50 (Plasmodium falciparum [1]): 20.7 µM
IC50 (Plasmodium falciparum [2]): 8.09 µM

CCn1cc/c(=N\c2cccc(CCc3ccccc3)c2)c(Cl)c1
IC50 (Plasmodium falciparum [1]): 3.46 µM
IC50 (Plasmodium falciparum [2]): 3.53 µM

On1cc/c(=N\c2cccc(CCc3ccccc3)c2)c(Cl)c1
IC50 (Plasmodium falciparum [1]): > 8900 µM
IC50 (Plasmodium falciparum [2]): > 8900 µM

O=C1C(O)=C([C@H]2CC[C@H](c3ccc(Cl)cc3)CC2)C(=O)c2ccccc21 [ATOVAQUONE]
IC50 (Plasmodium falciparum [2]): 1.89 µM

CC[N+](C)(CC)Cc1cc(/N=c2\ccn(C)c(C)c2)ccc1O
IC50 (Plasmodium falciparum [1]): > 50 µM
IC50 (Plasmodium falciparum [2]): 9.86 µM

CCn1cc/c(=N\c2cccc(CCc3ccc(C(F)(F)F)cc3)c2)c(Cl)c1
IC50 (Plasmodium falciparum [1]): 1.6 µM
IC50 (Plasmodium falciparum [2]): 1.87 µM

CCn1cc/c(=N\c2cccc(CCc3ccc(OC(F)(F)F)cc3)c2)c(N)c1
IC50 (Plasmodium falciparum [1]): 3.91 µM
IC50 (Plasmodium falciparum [2]): 1.83 µM

CCn1cc/c(=N\c2cccc(CCc3ccccc3)c2)c(N)c1
IC50 (Plasmodium falciparum [1]): 1.67 µM
IC50 (Plasmodium falciparum [2]): 2.08 µM

CCN(CC)Cc1cc(/N=c2\ccn(C)cc2C)ccc1O
IC50 (Plasmodium falciparum [1]): 33 µM
IC50 (Plasmodium falciparum [2]): > 10 µM

CCn1cc(Cl)c(=Nc2cccc(CCc3ccc(OC(F)(F)F)cc3)c2)c(Cl)c1
IC50 (Plasmodium falciparum [1]): 0.94 µM
IC50 (Plasmodium falciparum [2]): 2.8 µM

COc1ccc(CCc2cccc(/N=c3\ccn(C)cc3Cl)c2)cc1
IC50 (Plasmodium falciparum [1]): 5.24 µM
IC50 (Plasmodium falciparum [2]): 5.12 µM

Cc1nc(C)c(Cl)c(O)c1Cl [CLOPIDOL]
IC50 (Plasmodium falciparum [1]): 9.73 µM
IC50 (Plasmodium falciparum [2]): 3.37 µM
